Values of other authors in patent publication US12029808B2, “Kit and method for dyeing keratinous material by means of aminosilicone and a chromophoric compound” (Henkel AG & Co. KGaA, priority 2019, dated 2024).

conditions: 25° C.

solubility in water | solubility in water (in words) | Compound
more than 20 wt. % |  | CCN(Cc1cccc(S(=O)(=O)[O-])c1)c1ccc(C(=C2C=CC(=[N+](CC)Cc3cccc(S(=O)(=O)[O-])c3)C=C2)c2ccccc2S(=O)(=O)[O-])cc1.[Na+].[Na+] [Acid Blue 9]
2.5 mg/mL |  | Nc1cc(S(=O)(=O)[O-])cc2cc(S(=O)(=O)[O-])c(N=Nc3ccccc3)c(O)c12.[Na+].[Na+] [Acid Red 33, diantrium salt of 5-amino-4-hydroxy-3-(phenylazo)-naphthalene-2,7-disulphonate]
 | highly soluble in water | O=C([O-])C1=NN(c2ccc(S(=O)(=O)[O-])cc2)C(=O)C1N=Nc1ccc(S(=O)(=O)[O-])cc1.[Na+].[Na+].[Na+] (stereo not drawn) [Acid Yellow 23, trisodium salt of 4,5-dihydro-5-oxo-1-(4-sulfophenyl)-4-((4-sulfophenyl)azo)-1H-pyrazole-3-carboxylic acid]
20 mg/mL |  | mixture of the sodium salts of mono- and sisulfonic acids of 2-(2-quinolyl)-1H-indene-1,3(2H)-dione [Acid Yellow 3]

Compound | solubility in water | solubility in water (in words)
O=S(=O)([O-])c1ccc(N=Nc2c(O)ccc3ccccc23)cc1.[Na+] [Acid Orange 7, sodium salt of 4-[(2-hydroxy-1-naphthyl)azo]benzene sulphonate] | more than 7 g/L | 
O=C([O-])c1c(Cl)c(Cl)c(Cl)c(Cl)c1-c1c2c(Br)cc(=O)c(Br)c-2oc2c(Br)c(O)cc(Br)c12.O=C([O-])c1c(Cl)c(Cl)c(Cl)c(Cl)c1-c1c2c(Br)cc(=O)c(Br)c-2oc2c(Br)c(O)cc(Br)c12.[Na+].[Na+] [Acid Red 92, disodium salt of 3,4,5,6-tetrachloro-2-(1,4,5,8-tetrabromo-6-hydroxy-3-oxoxanthen-9-yl)benzoic acid] | greater than 10 g/L | 
